Consider 16 compounds from PubChem BioAssay (NCI).

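Test compounds were applied to cells in 96-well plates for 48 hours at 5 doses. Here, GI50 denotes the concentration required for 50% inhibition of growth. TGI is the concentration that stops growth completely.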

Some test systems named below: SNB-75 CNS; SW-620 colon; HCT-15 colon; SN12C renal; SK-MEL-2 melanoma; OVCAR-3 ovarian; M14 melanoma; MCF7 breast; MDA-MB-231 breast; MDA-MB-435.
Holding throughout (test): NCI tumour cell line growth inhibition, 48 h

`COC(=O)[C@@H]1Cc2c([nH]c3ccccc23)[C@H](c2ccccc2)N1`: the TGI in the assay with SNB-75 CNS was 86.1 µM; with SW-620 colon, more than 100 µM; in the assay with HCT-15 colon it was 41.3 µM; in the assay on SN12C renal, 81.5 µM; with SK-MEL-2 melanoma it was 82.8 µM; in the assay on OVCAR-3 ovarian, 98.7 µM. This compound had a TGI in the assay on M14 melanoma of 79.6 µM.
For `Clc1cccc(C2N3CCCCC3[C@@H]3c4[nH]c5ccccc5c4CCN23)c1` (stereo partly drawn), the TGI in the assay with SNB-75 CNS is 85.4 µM; with SW-620 colon, more than 100 µM; in the assay with HCT-15 colon, more than 100 µM; with SN12C renal, 26.5 µM; in the assay on SK-MEL-2 melanoma, 40.1 µM; in the assay with OVCAR-3 ovarian, more than 100 µM. Also, the TGI in the assay on M14 melanoma was 78.5 µM.
Consider `O=C(Nc1ccc(Cl)c(Cl)c1)C(=O)C(C(=O)c1ccccc1-c1ccccc1)C1OC(=O)c2ccccc21` (stereo not drawn), for which the TGI was found to be 41.3 µM in the assay on SNB-75 CNS; 42.7 µM with SW-620 colon; 24.7 µM with SK-MEL-2 melanoma; 31.9 µM in the assay on OVCAR-3 ovarian; 30.1 µM in the assay on M14 melanoma.
With `Nc1c(Cl)ncnc1NCCCCCCCCCCCCNc1ncnc(Cl)c1N`, the TGI with SNB-75 CNS is 7.16 µM; in the assay on SW-620 colon, 54 µM; in the assay on HCT-15 colon, more than 100 µM; in the assay on SN12C renal, 39.6 µM; in the assay with SK-MEL-2 melanoma, 7.92 µM; in the assay with OVCAR-3 ovarian it was 8.35 µM. Besides, the TGI in the assay with M14 melanoma turned out to be 57.3 µM.
Regarding `O=C(Nc1ccc(Cl)cc1Cl)OC(Cn1cncn1)c1ccc(Cl)cc1Cl` (stereo not drawn), the TGI with SNB-75 CNS came out at 30.1 µM; in the assay with SW-620 colon it was 30.4 µM; in the assay with HCT-15 colon, 31.1 µM; in the assay on SN12C renal it was 30.7 µM; with SK-MEL-2 melanoma it was 33.7 µM; in the assay on OVCAR-3 ovarian, 29.3 µM. The compound further yielded a TGI in the assay with M14 melanoma of 32.1 µM.
With `COC(=O)[C@@]12CC(C(C)C)[C@H]3CC(C(=O)C=C1OC)[C@H]32` (stereo partly drawn), the TGI with SNB-75 CNS, in the assay on SW-620 colon, in the assay on HCT-15 colon, in the assay with SN12C renal, with SK-MEL-2 melanoma and in the assay with OVCAR-3 ovarian was more than 100 µM each time. The same compound gave a TGI in the assay with M14 melanoma of more than 100 µM.
As for `CNS(=O)(=O)NNS(=O)(=O)c1ccc(OC)cc1`, the TGI in the assay with SNB-75 CNS, in the assay with SW-620 colon, in the assay on HCT-15 colon, with SK-MEL-2 melanoma, in the assay with OVCAR-3 ovarian and with M14 melanoma was more than 100 µM throughout.
`COC(=O)C1C(=O)O[C@@H](c2cc(OC)c(OC)cc2OC)C1C(=O)OC` (mixture of isomers): the TGI in the assay with SNB-75 CNS, in the assay on SW-620 colon, with HCT-15 colon, in the assay on SN12C renal, in the assay on OVCAR-3 ovarian and in the assay with M14 melanoma was more than 100 µM in each case.
In the case of `NC1=NN(c2ccccc2)C(=O)C1C(=O)C(=O)Nc1ccc(Cl)c(Cl)c1` (stereo not drawn), the TGI with SNB-75 CNS is 85 µM; with SW-620 colon it was more than 100 µM; with HCT-15 colon, more than 100 µM; in the assay on SN12C renal, more than 100 µM; in the assay on SK-MEL-2 melanoma, more than 100 µM; with OVCAR-3 ovarian it was more than 100 µM. Also, in the assay with M14 melanoma, the TGI is more than 100 µM.
With `CN1CCN(C(=O)COc2ccc(/C=C3\CC4C5CC=C6CC(Cl)CCC6(C)C5CCC4(C)C3=O)cc2)CC1` (stereo not drawn), the GI50 in the assay on SNB-75 CNS was 19 µM; with MCF7 breast it was more than 100 µM; with MDA-MB-231 breast it was more than 100 µM; in the assay on SN12C renal, more than 100 µM; in the assay with SK-MEL-2 melanoma, more than 100 µM; in the assay with OVCAR-3 ovarian, more than 100 µM. In the assay on M14 melanoma, the GI50 was more than 100 µM. Further, the TGI in the assay on SNB-75 CNS is 56.7 µM; in the assay on MCF7 breast, more than 100 µM; in the assay on MDA-MB-231 breast, more than 100 µM; in the assay on SN12C renal, more than 100 µM; with SK-MEL-2 melanoma, more than 100 µM; in the assay with OVCAR-3 ovarian, more than 100 µM. Also, the TGI in the assay with M14 melanoma was more than 100 µM.
Take `COc1c(-c2ccccc2)nc2ccc(Oc3ccccc3)nn12`: the TGI in the assay with SNB-75 CNS is more than 100 µM; with SW-620 colon, more than 100 µM; in the assay on HCT-15 colon it was more than 100 µM; in the assay on SN12C renal, more than 100 µM; in the assay on SK-MEL-2 melanoma it was more than 94.4 µM; with OVCAR-3 ovarian, more than 100 µM. This compound also returned a TGI in the assay on M14 melanoma of more than 100 µM.
Regarding `Clc1cccc(-c2nnc(-c3nn(-c4ccccc4)c4nc5ccccc5nc34)o2)c1`, the TGI in the assay on SNB-75 CNS, in the assay with SW-620 colon, in the assay on HCT-15 colon, in the assay with SN12C renal, in the assay on SK-MEL-2 melanoma and in the assay with OVCAR-3 ovarian was more than 100 µM in each case. Also, the TGI with M14 melanoma is more than 100 µM.
On to `CCNC(=O)OCc1c(COC(=O)NCC)c(-c2ccc(Cl)c(Cl)c2)n2c1CCC2`, for which the TGI with SNB-75 CNS worked out at 27.7 µM; in the assay on SW-620 colon, 68.8 µM; in the assay with HCT-15 colon it was 36.9 µM; with SK-MEL-2 melanoma, 28.1 µM; in the assay on OVCAR-3 ovarian it was 45.8 µM; with M14 melanoma, 24.3 µM.
With `O=c1c(Cl)c(Cl)cnn1CCCl`, the TGI in the assay on SNB-75 CNS was determined as 24.1 µM; in the assay on SW-620 colon, 3.89 µM; in the assay with HCT-15 colon, 6.79 µM; with SN12C renal it was 25.5 µM; in the assay with OVCAR-3 ovarian, 11.9 µM; with MDA-MB-435 it was 10.6 µM. In the assay with M14 melanoma, this compound gave a TGI of 11.3 µM.
On to `CCOc1ccccc1N=Nc1c(-c2ccccc2)nn(C(=O)CC(=O)Nc2cccc(C)c2)c1-c1ccccc1`, for which the TGI in the assay on SNB-75 CNS, with SW-620 colon, in the assay with SN12C renal, in the assay on SK-MEL-2 melanoma, in the assay with OVCAR-3 ovarian and in the assay with M14 melanoma was more than 100 µM throughout.
As to `N#CC(C(=O)/C(=N\NC(N)=O)C(C#N)c1ccccc1)c1ccccc1` (stereo not drawn), the TGI in the assay with SNB-75 CNS, in the assay with SW-620 colon, in the assay on HCT-15 colon, in the assay on SN12C renal, in the assay with SK-MEL-2 melanoma and in the assay with OVCAR-3 ovarian was more than 100 µM throughout. Moreover, the TGI with M14 melanoma was more than 100 µM.
